Series [1] concerns the target T1, human GABAA α5β3γ2s receptor (Homo sapiens, UniProt P18507+P31644).
T1 sequence (P18507 1-475): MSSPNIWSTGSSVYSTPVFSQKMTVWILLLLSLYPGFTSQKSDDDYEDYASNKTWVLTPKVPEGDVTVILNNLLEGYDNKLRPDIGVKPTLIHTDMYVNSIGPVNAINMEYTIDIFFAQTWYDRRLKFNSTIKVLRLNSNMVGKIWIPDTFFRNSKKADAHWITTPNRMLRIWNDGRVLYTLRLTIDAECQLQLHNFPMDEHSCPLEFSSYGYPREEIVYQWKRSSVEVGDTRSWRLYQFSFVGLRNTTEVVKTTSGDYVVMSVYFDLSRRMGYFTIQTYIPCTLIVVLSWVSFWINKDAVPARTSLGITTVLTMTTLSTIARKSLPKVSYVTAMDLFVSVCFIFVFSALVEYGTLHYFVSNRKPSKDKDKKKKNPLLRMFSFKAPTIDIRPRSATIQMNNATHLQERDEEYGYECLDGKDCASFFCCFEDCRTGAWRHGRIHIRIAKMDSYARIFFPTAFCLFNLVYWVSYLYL
T1 sequence (P31644 1-462): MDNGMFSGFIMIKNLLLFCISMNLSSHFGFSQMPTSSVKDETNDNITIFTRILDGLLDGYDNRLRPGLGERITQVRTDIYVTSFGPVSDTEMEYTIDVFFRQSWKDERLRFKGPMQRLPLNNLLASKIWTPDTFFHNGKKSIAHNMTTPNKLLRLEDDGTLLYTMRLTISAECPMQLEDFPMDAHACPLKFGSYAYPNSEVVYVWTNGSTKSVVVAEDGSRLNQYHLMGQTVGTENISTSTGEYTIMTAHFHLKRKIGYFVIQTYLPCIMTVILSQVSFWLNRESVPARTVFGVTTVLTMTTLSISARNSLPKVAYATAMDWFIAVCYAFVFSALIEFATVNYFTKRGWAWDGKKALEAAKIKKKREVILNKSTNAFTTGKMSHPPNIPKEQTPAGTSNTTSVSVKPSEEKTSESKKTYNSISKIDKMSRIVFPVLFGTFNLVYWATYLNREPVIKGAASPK
The series is described as follows: Assay A: in vitro inhibition of 3H-flumazenil binding, HEK cells expressing the human GABAA α5β3γ2s receptor.

Series [2] can be described thus: Metabolic stability in human liver microsomes (Human MST). Format: in vitro ADME. Conditions: pH 7.6, pooled human liver microsomes, 37° C., read-out: Human MST t½. As to the method: Assessment of Metabolic Stability in Human Liver Microsomes (Human MST) The metabolic stability of the compounds according to the invention may be investigated as follows: The metabolic degradation of the test compound is assayed at 37° C. with pooled human liver microsomes. The final incubation volume of 100 μL per time point contains TRIS buffer pH 7.6 at room temperature (0.1 M), MgCl2 (5 mM), microsomal protein (1 mg/mL) and the test compound at a final concentration of 1 μM. Following a short pre-incubation period at 37° C., the reactions are initiated by addition of beta-nicotinamide adenine dinucleotide phosphate, reduced form (NADPH, 1 mM), and terminated by transferring an aliquot into solvent after different time points. After centrifugation (10000 g, 5 min), an aliquot of the supernatant is assayed by LCMS/MS for the amount of parent compound. The half-life (t1/2) is determined by the slope of the semi-logarithmic plot of the concentration-time profile.
For orientation: Microsomes from liver hold many membrane-bound enzymes, among them those of drug oxidation.

[3] abbreviates: read-out: Assay A: GABAA α 5 β 3 γ 2s Ki.

Like-named read-outs stand apart in the source and are kept apart here.

The term Ki denotes a measure of affinity in units of concentration, obtained from inhibition or displacement. Turning to `Cc1ncnn1-c1ccc(OCc2c(-c3ccc(C(F)F)cn3)nnn2C)nn1` [Example 48, 3-({4-[5-(difluoromethyl)pyridin-2-yl]-1-methyl-1H-1,2,3-triazol-5-yl}methoxy)-6-(5-methyl-1H-1,2,4-triazol-1-yl)pyridazine], in series [1] (setting [3]), the Ki was 82 nM. Besides, the half-life at 1 μM in series [2] is more than 2.17 h.

For `Cn1nnc(-c2ccc(C(F)F)cn2)c1COc1ccc(-n2cc(C#N)cn2)nn1` [Example 49], the Ki in series [1] (setting [3]) was 25 nM. Also, in series [2], the half-life at 1 μM was more than 2.17 h.

Take `Cn1nnc(-c2ccc(C(F)F)cn2)c1COc1ccc(-n2cccn2)nn1` [Example 50]: the Ki in series [1] (setting [3]) came out at 22 nM. In addition, the half-life at 1 μM in series [2] amounted to 2.17 h.

On to `Cn1nnc(-c2ccc(C(F)F)cn2)c1COc1ccc(-n2cnc(C#N)c2)nn1` [Example 52], for which the Ki in series [1] (setting [3]) is 35 nM. Further, in series [2], the half-life at 1 μM was more than 2.17 h.

For the molecule `Cn1nnc(-c2ccc(C(F)F)cn2)c1COc1ccc(-n2ccc(C#N)n2)nn1` [Example 53], in series [1] (setting [3]), the Ki was 19 nM. For the same molecule, the half-life at 1 μM in series [2] was more than 2.17 h.

For `Cc1nnn(-c2ccc(C(F)F)cn2)c1COc1ccc(-c2cnccn2)nn1` [Example 56, 3-({1-[5-(difluoromethyl)pyridin-2-yl]-4-methyl-1H-1,2,3-triazol-5-yl}methoxy)-6-(pyrazin-2-yl)pyridazine], the Ki came out at 0.01 nM in series [1] (compounds of the present invention, read-out: Assay A: GABAA α5 β3 γ2S Ki) and 10 nM in series [1] (setting [3]). For the same molecule, the half-life at 1 μM in series [2] is more than 2.17 h.
